The target of experiment [1] is T1, 5-hydroxytryptamine receptor 7 (Homo sapiens, UniProt P34969). The experiment is described as follows: Displacement of [3H]LSD from 5-HT7 receptor (unknown origin) expressed in CHO-K1 cells by liquid scintillation counting method. The format is cell-based. On the technique in general: In a radioligand displacement assay an active substance lowers the binding of a labelled ligand.

The target in experiment [2] is T1, 5-hydroxytryptamine receptor 7. Briefly: Binding affinity to recombinant 5-HT7 receptor (unknown origin) after 1.5 hrs by radioligand displacement assay.
Experiment [3] addresses T2, 5-hydroxytryptamine receptor 3A (Homo sapiens) (UniProt P46098).
T2 sequence (whole entry): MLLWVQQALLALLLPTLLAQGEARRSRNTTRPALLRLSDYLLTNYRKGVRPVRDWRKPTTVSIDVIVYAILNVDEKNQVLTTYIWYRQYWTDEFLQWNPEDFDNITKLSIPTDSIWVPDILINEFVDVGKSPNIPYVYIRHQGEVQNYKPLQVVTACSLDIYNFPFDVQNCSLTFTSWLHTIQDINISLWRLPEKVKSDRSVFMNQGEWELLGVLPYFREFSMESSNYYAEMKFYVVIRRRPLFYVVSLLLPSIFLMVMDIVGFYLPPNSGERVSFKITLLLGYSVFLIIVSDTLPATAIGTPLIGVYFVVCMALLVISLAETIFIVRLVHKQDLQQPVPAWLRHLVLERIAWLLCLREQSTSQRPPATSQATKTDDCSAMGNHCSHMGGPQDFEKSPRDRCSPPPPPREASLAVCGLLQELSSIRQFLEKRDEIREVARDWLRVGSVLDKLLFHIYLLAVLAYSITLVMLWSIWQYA
The experiment is described as follows: Binding affinity to recombinant 5-HT3 receptor (unknown origin) at 10 uM after 1.5 hrs by radioligand displacement assay.

The species entered for experiment [4] is Homo sapiens. Briefly: Selectivity index, ratio of Ki for recombinant 5-HT2C receptor (unknown origin) to Ki for recombinant 5-HT7 receptor (unknown origin).
In experiment [5] the target is T3, 5-hydroxytryptamine receptor 1A (Homo sapiens, UniProt P08908).
T3 sequence (P08908 whole entry): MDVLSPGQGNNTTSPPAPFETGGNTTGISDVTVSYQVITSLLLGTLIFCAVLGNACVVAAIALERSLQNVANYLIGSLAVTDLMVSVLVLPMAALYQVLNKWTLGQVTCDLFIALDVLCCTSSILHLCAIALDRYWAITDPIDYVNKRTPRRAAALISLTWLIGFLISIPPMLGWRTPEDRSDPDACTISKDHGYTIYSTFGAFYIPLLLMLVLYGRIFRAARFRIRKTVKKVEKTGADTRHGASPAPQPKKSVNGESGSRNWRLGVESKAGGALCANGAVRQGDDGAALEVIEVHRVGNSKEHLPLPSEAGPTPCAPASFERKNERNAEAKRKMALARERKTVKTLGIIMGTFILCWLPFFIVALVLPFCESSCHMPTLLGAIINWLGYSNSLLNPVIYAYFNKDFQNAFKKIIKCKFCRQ
The experiment is described as follows: Binding affinity to recombinant 5-HT1A receptor (unknown origin) after 1.5 hrs by radioligand displacement assay.

The species entered for experiment [6] is Homo sapiens. Briefly: Selectivity index, ratio of Ki for recombinant 5-HT5 receptor (unknown origin) to Ki for recombinant 5-HT7 receptor (unknown origin).
For experiment [7], the species on record is Homo sapiens. Briefly: Selectivity index, ratio of Ki for recombinant 5-HT1A receptor (unknown origin) to Ki for recombinant 5-HT7 receptor (unknown origin).
For experiment [8], the species on record is Homo sapiens. The experiment is described as follows: Selectivity index, ratio of Ki for recombinant 5-HT6 receptor (unknown origin) to Ki for recombinant 5-HT7 receptor (unknown origin).
For experiment [9], the target named is T4, 5-hydroxytryptamine receptor 1B (Homo sapiens, UniProt P28222). The experiment is described as follows: Binding affinity to recombinant 5-HT1B receptor (unknown origin) at 10 uM after 1.5 hrs by radioligand displacement assay.
For experiment [10], the target named is T5, 5-hydroxytryptamine receptor 2C (Homo sapiens, UniProt P28335).
T5 sequence (P28335 whole entry): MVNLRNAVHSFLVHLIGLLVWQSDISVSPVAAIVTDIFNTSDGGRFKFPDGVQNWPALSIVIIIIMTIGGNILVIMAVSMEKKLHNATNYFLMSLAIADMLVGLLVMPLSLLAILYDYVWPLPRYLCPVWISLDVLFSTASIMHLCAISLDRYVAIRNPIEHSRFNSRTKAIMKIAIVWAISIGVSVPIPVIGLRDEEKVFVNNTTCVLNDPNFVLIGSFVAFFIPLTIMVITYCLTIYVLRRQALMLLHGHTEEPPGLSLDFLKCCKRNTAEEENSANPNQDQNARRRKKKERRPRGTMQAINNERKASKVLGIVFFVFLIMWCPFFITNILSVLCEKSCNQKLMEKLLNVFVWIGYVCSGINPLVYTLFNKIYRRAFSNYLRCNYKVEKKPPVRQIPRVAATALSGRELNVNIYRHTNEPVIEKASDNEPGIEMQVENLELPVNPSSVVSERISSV
The experiment is described as follows: Binding affinity to recombinant 5-HT2C receptor (unknown origin) after 1.5 hrs by radioligand displacement assay.

The target of experiment [11] is 5-hydroxytryptamine receptor 1D (Homo sapiens, UniProt P28221). Briefly: Binding affinity to recombinant 5-HT1D receptor (unknown origin) after 1.5 hrs by radioligand displacement assay.
The species entered for experiment [12] is Homo sapiens. Briefly: Selectivity index, ratio of Ki for recombinant 5-HT1D receptor (unknown origin) to Ki for recombinant 5-HT7 receptor (unknown origin).
Experiment [13] deals with 5-hydroxytryptamine receptor 2B (Homo sapiens, UniProt P41595). The experiment is described as follows: Binding affinity to recombinant 5-HT2B receptor (unknown origin) after 1.5 hrs by radioligand displacement assay.
In experiment [14] the target is T6, 5-hydroxytryptamine receptor 2A (Homo sapiens, UniProt P28223). Briefly: Binding affinity to recombinant 5-HT2A receptor (unknown origin) at 10 uM after 1.5 hrs by radioligand displacement assay.
The species named for experiment [15] is Homo sapiens. Briefly: Selectivity index, ratio of Ki for recombinant 5-HT2B receptor (unknown origin) to Ki for recombinant 5-HT7 receptor (unknown origin).
Experiment [16] addresses T7, 5-hydroxytryptamine receptor 6 (Homo sapiens, UniProt P50406). The experiment is described as follows: Binding affinity to recombinant 5-HT6 receptor (unknown origin) after 1.5 hrs by radioligand displacement assay.
For experiment [17], the target named is 5-hydroxytryptamine receptor 5A (Homo sapiens, UniProt P47898). The experiment is described as follows: Binding affinity to recombinant 5-HT5 receptor (unknown origin) after 1.5 hrs by radioligand displacement assay.
Experiment [18] relates to Mus musculus. Briefly: Antidepressant activity in ICR mouse assessed as immobility time at 50 mg/kg, iv administered 30 mins before testing by forced swim test (reference value: 159.1 sec). The format is functional.
Experiment [19] deals with T1, 5-hydroxytryptamine receptor 7. The experiment is described as follows: Displacement of [3H]LSD from 5-HT7 receptor (unknown origin) expressed in CHO-K1 cells at 10 uM by liquid scintillation counting method. The format is cell-based.
Experiment [20] addresses T6, 5-hydroxytryptamine receptor 2A. The experiment is described as follows: Binding affinity to recombinant 5-HT2A receptor (unknown origin) after 1.5 hrs by radioligand displacement assay.
Experiment [21] deals with T7, 5-hydroxytryptamine receptor 6. Briefly: Binding affinity to recombinant 5-HT6 receptor (unknown origin) at 10 uM after 1.5 hrs by radioligand displacement assay.
Experiment [22] addresses T4, 5-hydroxytryptamine receptor 1B. The experiment is described as follows: Binding affinity to recombinant 5-HT1B receptor (unknown origin) after 1.5 hrs by radioligand displacement assay.

5-hydroxytryptamine receptor 5A, sequence (P47898 whole entry): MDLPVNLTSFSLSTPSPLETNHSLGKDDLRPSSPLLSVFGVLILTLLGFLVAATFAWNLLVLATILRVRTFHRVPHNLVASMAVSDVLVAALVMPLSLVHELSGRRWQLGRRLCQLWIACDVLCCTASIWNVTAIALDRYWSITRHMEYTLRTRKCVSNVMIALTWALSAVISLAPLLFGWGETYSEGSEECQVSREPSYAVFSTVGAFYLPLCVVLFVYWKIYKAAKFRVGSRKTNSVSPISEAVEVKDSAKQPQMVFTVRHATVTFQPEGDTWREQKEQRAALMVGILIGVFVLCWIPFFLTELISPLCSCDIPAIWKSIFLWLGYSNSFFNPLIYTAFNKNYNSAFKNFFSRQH
T7 sequence (P50406 whole entry): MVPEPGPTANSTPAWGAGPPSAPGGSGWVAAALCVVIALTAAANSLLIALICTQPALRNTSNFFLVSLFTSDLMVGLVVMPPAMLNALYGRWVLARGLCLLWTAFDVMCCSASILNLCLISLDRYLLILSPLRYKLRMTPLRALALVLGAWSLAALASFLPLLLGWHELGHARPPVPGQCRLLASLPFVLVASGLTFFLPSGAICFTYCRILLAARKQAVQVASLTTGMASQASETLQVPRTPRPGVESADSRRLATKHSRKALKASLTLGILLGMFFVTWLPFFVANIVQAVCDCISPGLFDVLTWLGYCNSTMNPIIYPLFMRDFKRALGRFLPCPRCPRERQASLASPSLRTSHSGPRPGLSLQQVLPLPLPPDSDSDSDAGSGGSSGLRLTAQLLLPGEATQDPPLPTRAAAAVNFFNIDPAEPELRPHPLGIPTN
5-hydroxytryptamine receptor 1D, sequence (P28221 whole entry): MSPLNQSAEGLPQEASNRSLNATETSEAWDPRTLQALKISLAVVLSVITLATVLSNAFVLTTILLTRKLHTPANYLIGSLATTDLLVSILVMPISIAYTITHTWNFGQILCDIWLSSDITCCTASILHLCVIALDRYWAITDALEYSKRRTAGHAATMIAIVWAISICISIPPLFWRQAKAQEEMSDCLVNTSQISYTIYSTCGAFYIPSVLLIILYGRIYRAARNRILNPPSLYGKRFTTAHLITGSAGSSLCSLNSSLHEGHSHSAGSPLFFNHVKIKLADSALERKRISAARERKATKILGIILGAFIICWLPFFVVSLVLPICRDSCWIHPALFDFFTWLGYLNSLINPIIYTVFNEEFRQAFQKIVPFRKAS
T4 sequence (P28222 whole entry): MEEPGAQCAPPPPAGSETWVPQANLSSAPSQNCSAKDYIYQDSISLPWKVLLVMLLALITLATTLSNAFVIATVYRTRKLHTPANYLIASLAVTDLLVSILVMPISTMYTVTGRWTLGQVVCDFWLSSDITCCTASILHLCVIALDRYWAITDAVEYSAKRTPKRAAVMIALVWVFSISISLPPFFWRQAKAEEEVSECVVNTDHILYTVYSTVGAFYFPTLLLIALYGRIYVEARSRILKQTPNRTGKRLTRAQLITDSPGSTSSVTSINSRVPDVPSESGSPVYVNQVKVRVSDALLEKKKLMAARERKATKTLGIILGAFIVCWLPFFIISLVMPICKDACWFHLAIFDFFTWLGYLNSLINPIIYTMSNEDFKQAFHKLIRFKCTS
T6 sequence (P28223 whole entry): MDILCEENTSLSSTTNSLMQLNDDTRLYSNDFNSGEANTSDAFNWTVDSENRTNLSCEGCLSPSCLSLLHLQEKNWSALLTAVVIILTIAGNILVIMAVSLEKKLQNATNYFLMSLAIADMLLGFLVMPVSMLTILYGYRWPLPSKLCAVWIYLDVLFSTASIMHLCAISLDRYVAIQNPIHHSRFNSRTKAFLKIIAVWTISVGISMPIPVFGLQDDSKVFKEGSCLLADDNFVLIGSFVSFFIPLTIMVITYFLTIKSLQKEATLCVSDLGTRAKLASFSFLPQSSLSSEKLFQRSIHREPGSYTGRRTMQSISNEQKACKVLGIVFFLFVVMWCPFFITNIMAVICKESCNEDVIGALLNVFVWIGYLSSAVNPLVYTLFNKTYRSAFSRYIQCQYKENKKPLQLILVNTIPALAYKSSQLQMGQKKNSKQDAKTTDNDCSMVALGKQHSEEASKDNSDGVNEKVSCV
T1 sequence (P34969 whole entry): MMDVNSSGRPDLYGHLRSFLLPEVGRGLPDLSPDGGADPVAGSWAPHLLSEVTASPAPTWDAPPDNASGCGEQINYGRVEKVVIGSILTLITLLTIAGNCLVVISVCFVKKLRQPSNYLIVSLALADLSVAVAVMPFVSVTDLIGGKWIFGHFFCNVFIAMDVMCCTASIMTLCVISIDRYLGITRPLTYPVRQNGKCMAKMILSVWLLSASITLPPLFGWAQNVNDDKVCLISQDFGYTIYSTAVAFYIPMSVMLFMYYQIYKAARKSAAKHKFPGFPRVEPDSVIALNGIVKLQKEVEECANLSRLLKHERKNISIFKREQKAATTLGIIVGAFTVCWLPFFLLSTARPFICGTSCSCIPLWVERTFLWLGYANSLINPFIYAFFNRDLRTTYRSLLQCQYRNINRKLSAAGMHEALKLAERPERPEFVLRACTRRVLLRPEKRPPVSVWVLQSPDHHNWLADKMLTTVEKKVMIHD
5-hydroxytryptamine receptor 2B, sequence (P41595 whole entry): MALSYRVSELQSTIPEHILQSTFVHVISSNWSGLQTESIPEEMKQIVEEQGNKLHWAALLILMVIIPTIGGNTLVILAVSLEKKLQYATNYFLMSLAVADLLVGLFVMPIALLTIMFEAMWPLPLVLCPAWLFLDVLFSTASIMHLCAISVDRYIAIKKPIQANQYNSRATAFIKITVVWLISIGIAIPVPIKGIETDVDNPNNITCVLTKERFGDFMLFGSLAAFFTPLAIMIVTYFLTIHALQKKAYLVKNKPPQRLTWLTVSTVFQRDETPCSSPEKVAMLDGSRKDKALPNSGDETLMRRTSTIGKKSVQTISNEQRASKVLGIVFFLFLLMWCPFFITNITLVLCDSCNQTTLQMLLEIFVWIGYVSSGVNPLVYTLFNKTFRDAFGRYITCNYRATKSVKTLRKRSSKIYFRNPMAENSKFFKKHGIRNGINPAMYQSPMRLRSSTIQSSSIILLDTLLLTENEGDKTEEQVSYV

Usually Ki stands for a measure of affinity in units of concentration, obtained from inhibition or displacement. In the case of `O=C(CCCCN1CCCCCC1)n1c2ccccc2c2ccccc21`, affinity in [1] was put at a Ki of 949 nM.
What is called inhibition is the percentage by which the read-out fell short of the control. On to `O=C(CCCCCN1CCN(c2ccccc2O)CC1)n1c2ccccc2c2ccccc21`, for which the Ki in [2] was 38 nM; in experiment [5], 148 nM; in experiment [1], 38 nM; in [10] it was 1390 nM; in [11] it was 28 nM; in experiment [13], 101 nM. The Ki in [16] came to 595 nM; in experiment [17], 933 nM. In addition, the values for the inhibition in [3], in [9] and in experiment [14] were 41%, 48% and 13%, respectively. For the same compound, the Ratio Ki in [4] stood at 37; in experiment [6] it was 25; in experiment [7] it was 3.9; in experiment [8], 16; in [12] it was 0.74; in experiment [15], 2.7.
`O=C(CCCCCN1CCOCC1)n1c2ccccc2c2ccccc21`: in [1], the affinity, expressed as Ki, was 1310 nM.
On the same count and under the same terms, then `O=C(CCCCCN1CCC(Cc2ccccc2)CC1)n1c2ccccc2c2ccccc21`, with 252 nM.
For the compound `CNCCC(Oc1ccc(C(F)(F)F)cc1)c1ccccc1` (stereo unspecified) [FLUOXETINE], the Time in experiment [18] was 83.9 s.
In [1], `O=C(CCCCCN1CCC(c2ccccc2)CC1)n1c2ccccc2c2ccccc21` returned a Ki of 157 nM.
Turning to `CC1CC(C)CN(CCCCC(=O)n2c3ccccc3c3ccccc32)C1` (stereo unspecified), the Ki in experiment [1] worked out at 1400 nM.
In turn, `CN1CCN(CCCCC(=O)n2c3ccccc3c3ccccc32)CC1` showed an inhibition in experiment [19] of 40%.
In [1], `CN(CCCCC(=O)n1c2ccccc2c2ccccc21)Cc1ccccc1` showed a Ki of 513 nM.
`CC1CC(C)CN(CCCCCC(=O)n2c3ccccc3c3ccccc32)C1` (stereo unspecified) gave a Ki in experiment [1] of 833 nM.
The compound `O=C(CCCCN1CCC(c2ccccc2)CC1)n1c2ccccc2c2ccccc21` came in with an inhibition constant Ki in experiment [1] of 153 nM.
Consider `O=C(CCCCN1CCC(Cc2ccccc2)CC1)n1c2ccccc2c2ccccc21`, for which affinity in experiment [1] was put at a Ki of 312 nM.
In experiment [1], `CCCCN(C)CCCCC(=O)n1c2ccccc2c2ccccc21` yielded a Ki of 1280 nM.
With `CN1CCN(CCCCCC(=O)n2c3ccccc3c3ccccc32)CC1`, the affinity in [1], expressed as Ki, was 1910 nM.
Regarding `O=C(CCCCN1CCOCC1)n1c2ccccc2c2ccccc21`, the inhibition in experiment [19] was found to be 47%.
Compound `O=C(CCCCCN1CCCCCC1)n1c2ccccc2c2ccccc21` showed a Ki in [1] of 616 nM.
Regarding `COc1ccccc1N1CCN(CCCCC(=O)n2c3ccccc3c3ccccc32)CC1`, the Ki is 30 nM in [2]; 122 nM in experiment [5]; 30 nM in experiment [1]; 451 nM in experiment [20]; 1170 nM in experiment [10]; 462 nM in experiment [11]. Moreover, the Ki came out at 93 nM in experiment [13], 5 nM in experiment [17] and 3.74 µM in experiment [22]. For the same compound, the inhibition worked out at 24% in [3] and 44% in experiment [21]. In addition, the Ratio Ki in [4] was determined as 39; in experiment [6], 0.17; in experiment [7], 4.1; in [12], 15; in experiment [15] it was 3.1.
For the compound `CC(=O)N1CCN(CCCCC(=O)n2c3ccccc3c3ccccc32)CC1`, affinity in [1] was put at a Ki of 1070 nM.
The compound `CCCCN(C)CCCCCC(=O)n1c2ccccc2c2ccccc21` showed a Ki in experiment [1] of 680 nM.
In the case of `CC1CCCN(CCCCCC(=O)n2c3ccccc3c3ccccc32)C1` (stereo unspecified), the Ki in experiment [1] came to 550 nM.
On to `O=C(CCCCN1CCN(c2ccccc2O)CC1)n1c2ccccc2c2ccccc21`, for which the figures for the inhibition in [3] and in [9] were 41% and 37%, respectively. In addition, the Ratio Ki in [4] was 18; in [6], 3.9; in [7], 0.26; in experiment [8] it was 10; in experiment [12], 16; in [15] it was 0.97. Moreover, the Ki is 22 nM in experiment [5]; 86 nM in [1]; 257 nM in experiment [20]; 1520 nM in experiment [10]; 1400 nM in experiment [11]; 83 nM in experiment [13]. Further, the Ki in experiment [16] was determined as 879 nM; in experiment [17] it was 337 nM.
In the case of `CC1CCN(CCCCC(=O)n2c3ccccc3c3ccccc32)CC1`, the Ki in experiment [1] amounted to 592 nM.
The same measure, in the same setting: then `CC(=O)N1CCN(CCCCCC(=O)n2c3ccccc3c3ccccc32)CC1`, with 2340 nM; and `O=C(CCCCCN1CCCC1)n1c2ccccc2c2ccccc21`, with 1050 nM.
Compound `O=C(CCCCN1CCCC1)n1c2ccccc2c2ccccc21` gave a Ki in experiment [1] of 2160 nM.

For the origin of these results see ChEMBL document CHEMBL3763052, “Novel N-acyl-carbazole derivatives as 5-HT7R antagonists” (Eur J Med Chem, 2016).
